This data set can be described thus: gradient 5% acetonitrile 3 min, to 50% in 2 min, to 85% in 15 min, held 3 min, 100 µL/min. The following applies: column: Zorbax Extend-C18 2.1 x 50 mm; eluents: water / acetonitrile, 0.1% formic acid. The method, boiled down: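 Values are retention times taken from adduct peaks that software picked and an analyst inspected. The pure standards were run as mixtures of ~100 molecules on HPLC linked to a quadrupole time-of-flight mass spectrometer, in positive and negative ionization mode. A Zorbax Extend-C18 column (2.1 × 50 mm, 1.8 μm) was used at 100 μL/min with water and acetonitrile, each including 0.1% formic acid.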
As to `CC(=O)NCc1ccc(-c2noc(-c3ccc(N(C)C)cc3)n2)s1`, the RP-LC retention time is 861 s.
Compound `COCCCNC(=O)c1cc(-c2ccc(F)cc2)c[nH]1` gave an RP-LC retention time of 726 s.
For the compound `CN(C)S(=O)(=O)c1ccc(-c2nnc(C(=O)NCCN3CCOCC3)o2)cc1`, the RP-LC retention time was 1270 s.
The figure for `O=C(Cn1nc2n(c1=O)CCCCC2)NCc1ccc(Cl)cc1` is 702 s; for `Cc1ccc(S(=O)(=O)Nc2ccncc2)c(C)c1N(C)S(=O)(=O)c1ccc(F)cc1` it is 625 s; for `CC1C(=O)NCCN1C(=O)c1cc(Cl)ccc1Cl` (centres undefined) it is 612 s.
For the compound `O=C(Cc1cccs1)N1CCCC(c2ccnc(-c3ccc(F)cc3)n2)C1` (centres undefined), the RP-LC retention time was 1050 s.
As for `COC(=O)c1ccc(-c2nc3cnccn3c2Nc2ccc(C(C)C)cc2)cc1`, the RP-LC retention time was 1070 s.
Under `Fc1cccc(-c2noc(-c3ccc(NCCCN4CCC(N5CCCCC5)CC4)nc3)n2)c1` stands 614 s; under `COc1cc(-c2ccc(NC(=O)NC3CC3)c(OC)c2)ccc1NC(=O)NC1CC1`, 824 s; under `CCn1cc(-c2ccc(Cl)cc2)cc1C(=O)N1CCN(C(C)C)CC1`, 717 s.
The figure for `CC(C)CCNC(=O)N1CCC(c2cc(N)on2)CC1` is 659 s; for `COc1ccc(Nc2c(-c3ccc(N(C)C)cc3)nc3ncccn23)cc1` it is 684 s; for `O=C(CN1C[C@H]2C[C@H](C1)[C@H]1CCCC(=O)N1C2)NCc1cccs1` it is 578 s.
The figure for `CC(C)OCCCNC(=O)c1cc2c(n(-c3ccc(C(C)C)cc3)c1=O)CCCC2=O` is 989 s.
`Cc1ccc(CNC(=O)C2(C)CCN(C(=O)Nc3ccc4c(c3)OCCO4)CC2)cc1` returned an RP-LC retention time of 751 s.
Compound `O=C(OCCc1ccccn1)c1cn(-c2ccccc2)c(=O)c2ccccc12` showed an RP-LC retention time of 696 s.
The figure for `COc1ccc(NC(=O)C2CCCN(S(=O)(=O)c3c[nH]c(C(=O)N4CCCCCC4)c3)C2)cc1` (centres undefined) is 842 s; for `CC1=C(c2ccc(F)cc2)S(=O)(=O)N=C1N1CCCN(C(=O)c2ccco2)CC1` it is 764 s.
With `CCOc1ccc(CN2CC(N(Cc3ccncc3)S(C)(=O)=O)C2)cc1`, the RP-LC retention time came out at 560 s.
As for `O=C(Cc1cccs1)N1CCc2[nH]nc(-c3ccccc3)c2C1`, the RP-LC retention time was found to be 839 s.
The figure for `CC(C)CNC(=O)c1cn(-c2cc(-c3nc(C4CC4)no3)ccn2)cn1` is 646 s; for `CCOC(=O)c1c(C)oc2nc(C)nc(NCc3ccc(CC)cc3)c12` it is 1370 s; for `CCOC(=O)Cc1c(C)nc2c(-c3cccc(Br)c3)cnn2c1C` it is 1250 s.
`COc1ccccc1-c1noc(C2CCCN2C(=O)Nc2cccc(Br)c2)n1` (centres undefined): the RP-LC retention time is 944 s.
Under `COc1cccc(-c2noc(Cn3c(=O)n(-c4ccc(C)cc4)c(=O)c4sccc43)n2)c1` stands 1030 s.
The figure for `CCc1nc(-c2csc(S(=O)(=O)N3CCCC(C(=O)NCc4ccc(F)cc4)C3)c2)no1` (centres undefined) is 976 s.
Under `COc1nn(C)cc1C(=O)Nc1nnc(C2CC(=O)N(c3ccccc3)C2)o1` (centres undefined) stands 610 s; under `Cc1nc(CC(=O)Nc2ccc(F)cc2Cl)sc1C(=O)NC1CC1`, 740 s.
Compound `CCN1CCCn2cc(S(=O)(=O)N3CCN(Cc4ccccc4)CC3)cc2C1=O` gave an RP-LC retention time of 587 s.
The figure for `O=S(=O)(Nc1cccc(C(F)(F)F)c1)c1ccc2c(c1)-c1oncc1CO2` is 998 s.
For the compound `Cc1oc(-c2[nH]ncc2C(=O)N2CCCCC2)cc1S(=O)(=O)Nc1ccc(F)c(F)c1`, the RP-LC retention time was 780 s.
The figure for `Cc1onc(-c2ccccc2Cl)c1C(=O)NC1C(=O)N2C1SC(C)(C)C2C(=O)O` (centres undefined) is 815 s; for `Cc1ccc(S(=O)(=O)N2CCCC2c2nc(-c3cccc(F)c3)no2)cc1Cl` (centres undefined) it is 1230 s.
Under `Cc1cc(N2CCN(C)CC2)nc(N2CCN(S(=O)(=O)c3cc(C)c(C)cc3C)CC2)n1` stands 598 s.
The figure for `Cc1cccc(-c2noc(-c3nn(CC(=O)N4CCCC4)c4ccccc34)n2)c1` is 1080 s; for `OC(CNCc1ccc(-c2ccc(Cl)cc2Cl)o1)c1ccccc1` (centres undefined) it is 800 s.
`COCC(=O)Nc1ccc2c(c1)Sc1ncccc1C(=O)N2C(C)C` gave an RP-LC retention time of 645 s.
`O=C(c1cccs1)N1CCC2(CC1)NC(=O)N(Cc1ccc(Cl)cc1)C2=O`: the RP-LC retention time was 816 s.
The figure for `COc1ccc(CC(=O)N2CCCC2c2c(C)noc2C)cc1OC` (centres undefined) is 696 s.
The figure for `Cc1ccc(-n2nc3c(N4CCCC(C(=O)NCCN5CCN(C)CC5)C4)nnc(C)c3c2C)cc1` (centres undefined) is 567 s.
Regarding `CC(C)CNC(=O)c1ccc2c(c1)N(C)C(=O)CS2`, the RP-LC retention time was 708 s.
For the compound `O=c1n(Cc2ccc(Cl)cc2)nc2c(S(=O)(=O)N3CCc4ccccc4C3)cccn12`, the RP-LC retention time came out at 1020 s.
As for `O=C(Cn1cccc(-c2nc(-c3ccccc3)no2)c1=O)Nc1ccc(Br)cc1F`, the RP-LC retention time was 951 s.
As to `Fc1ccc(F)c(-c2nc(-c3cccc(-c4ccn[nH]4)c3)no2)c1`, the RP-LC retention time was found to be 966 s.
The figure for `COc1ccc(-c2cc(C(F)(F)F)n3nc(C(=O)O)c(Cl)c3n2)cc1OC` is 855 s.
The compound `CCOc1ccccc1OCc1nn2c(-c3ccoc3C)nnc2s1` returned an RP-LC retention time of 970 s.
Under `CCOc1ccc(NC(=O)N2CCN(c3cc(C)nc(N4CCOCC4)n3)CC2)cc1` stands 624 s.
The compound `COc1ccc(-c2cc(=S)ss2)cc1` returned an RP-LC retention time of 1090 s.
`O=C(NCc1ccco1)C1CCN(Cc2cc3ccccc3n2Cc2ccccc2Cl)CC1` showed an RP-LC retention time of 790 s.
Under `Cc1oc(-c2ccc(C(=O)NCCN3CCN(C)CC3)cc2)nc1CSc1ccccc1` stands 661 s; under `COc1ccc(S(=O)(=O)Cc2nc(-c3ccc(Cl)cc3)no2)cc1`, 1030 s; under `Cc1nc(NC(=O)CCn2cnc3ccccc3c2=O)sc1C(=O)N(C)C`, 589 s.
Under `COc1ccc(S(=O)(=O)NCc2ccc3c(c2)CCN3C(=O)c2ccccc2)cc1OC` stands 824 s.
In turn, `Cc1ccc(C)c(NC(=O)Cn2ccc3ccn(C)c3c2=O)c1` yielded an RP-LC retention time of 784 s.
The figure for `CCc1nc2cc(-c3noc(-c4ccc(F)c(F)c4)n3)ccc2o1` is 1200 s; for `Cc1ccc(CNC(=O)c2ccc(CN3CCN(C4CCCC4)C(=O)C3=O)cc2)cc1C` it is 834 s.
On to `CCOC(=O)C1=C(CN(C)Cc2ccccc2)NC(=O)NC1c1cccc(OC)c1OC` (centres undefined), for which the RP-LC retention time is 659 s.
Compound `COc1ccc(CC(=O)Nc2cc(N3CCOCC3)ncn2)cc1OC` displayed an RP-LC retention time of 582 s.
Under `O=C(Nc1ccc2c(c1)OCCO2)N1CC[C@@H]2CN(Cc3ccccc3)[C@@H]2C1` stands 796 s; under `CCC(=O)Nc1ccc(-n2cnc(C(=O)N3CCN(c4cccc(C)c4C)CC3)c2)nc1`, 855 s; under `O=C(c1cnc2ccccc2n1)N1CC(c2nc(-c3cccc(C(F)(F)F)c3)no2)C1`, 1030 s.
Take `CCn1c(=O)c(-c2noc(C(=O)N3CCN(c4ccccn4)CC3)n2)nn(-c2ccccc2)c1=O`: the RP-LC retention time is 691 s.
`COc1ccc(-c2nc3cc(C)ccn3c2NC(=O)COc2ccc(Cl)cc2)cc1`: the RP-LC retention time was 729 s.
`O=C(c1ccc(Cn2c(=O)c3cccn3c3cccnc32)o1)N1CCN(c2ccccn2)CC1` showed an RP-LC retention time of 615 s.
Take `CCN(CC)C(=O)NCCc1noc(COC)n1`: the RP-LC retention time came out at 626 s.
In turn, `O=S(=O)(Cc1ccccc1)N1CCN(Cc2cccc(F)c2)C2(CCOCC2)C1` gave an RP-LC retention time of 745 s.
The figure for `Cc1ccccc1-n1c(Cn2ncc3c(N)ncnc32)nc2cccc(C)c2c1=O` is 719 s; for `CCc1cccc(NC(=O)C2(Cc3ccccc3)CCCCC(=O)N2)c1` (centres undefined) it is 931 s.
`COc1ccc(Cl)cc1NS(=O)(=O)c1cc2n(c1)CCCN(C)C2=O` yielded an RP-LC retention time of 724 s.
In the case of `COC(=O)c1cc(C)nc2c1c(=O)n(Cc1cccc(OC)c1)c(=O)n2C`, the RP-LC retention time is 970 s.
With `COc1ccc(-c2nc(-c3ccc4oc(-c5ccccc5)nc4c3)no2)cn1`, the RP-LC retention time was determined as 1430 s.
`CCc1ccc(S(=O)(=O)N2CCC(C(=O)NCCc3csc(-c4cccs4)n3)CC2)cc1`: the RP-LC retention time came to 1000 s.
In the case of `CCOC(=O)Cc1csc(NC(=O)c2cc(=O)c3ccccc3o2)n1`, the RP-LC retention time came out at 754 s.
Under `CCOC(=O)c1c(Cc2ccc(Cl)cc2)c[nH]c1C` stands 1010 s; under `CN1C(=O)CC[C@]2(CNC(=O)COc3cccc(Cl)c3)CCC[C@@H]12`, 727 s; under `CCCNC(=O)C1CCCN(c2ccc(SCC(=O)NCc3ccccc3Cl)nn2)C1` (centres undefined), 661 s.
For the compound `CCCN(Cc1ccc(OC)c(OC)c1)Cc1cc(=O)n2cc(Cl)ccc2n1`, the RP-LC retention time was 632 s.
The figure for `Cc1ccc(Nc2c(-c3cccc(O)c3)nc3ncccn23)cc1C` is 705 s.

The record behind these values is the METLIN SMRT retention time set (Domingo-Almenara et al. 2019).
